Values after ≈ are worked out from the molar mass of the structure shown. Values joined by “and” are separate entries in the source; they are usually repeats but may differ in a detail not shown here. Equal values may be shown once. Read-outs that look alike come from different tables or passages of the source.
Tests used:
[1] = pH of solutions before freeze-drying and after reconstitution; format: physicochemical
[2] = DOSY NMR study of complex formation with SBE-β-CD; format: physicochemical; conditions: for diffusion coefficient D: DOSY, D2O, 25 °C, ceftobiprole/maleic acid 1:25 without SBE-β-CD at 7.5 mM ceftobiprole
Source text: Another approach to investigate the complex formation using NMR is the use of Diffusion-Ordered SpectroscopY (DOSY). Based on chemical shifts, each individual signal can be assigned to a proper species present in the analysed sample solution, thus allowing us to determine its diffusion coefficient D . The value of D depends on the hydrodynamic radius r of the analysed species, temperature T , and on the dynamic viscosity η of the solution:(1) D=kBT/6π η r
Here, kB stands for the Boltzmann constant. The solutions used for the DOSY measurements should be appropriately diluted to avoid the viscosity-related issues. Moreover, to properly compare the DOSY spectra between the samples with and without SBE-β-CD, it must be checked whether the viscosities of these two samples are similar.
It is a generally accepted practice to approximate that D is the same for the CD in a complex and for free CD. Assuming a quick exchange regime, to calculate the molar fraction MFCB of ceftobiprole molecules being complexed in relation to all ceftobiprole molecules in the studied solution, one can take advantage of the equation stating that DCB−CD is the weighted average of DCB and DCD :(2) DCB−CD=MFCBDCB+(1−MFCB)DCD
The complexation equilibrium is dynamic, and can be interpreted as a statistical ceftobiprole molecule spending MFCB proportion of time in a complex, and (1−MFCB) fraction of time alone, resulting in overall DCB−CD being the weighted average.
In these studies, 16 increments consisting of 64 scans were performed. A relaxation time of 2 s, a diffusion time of 200 ms, a total diffusion encoding gradient duration of 2 ms, and 16 values of the diffusion encoding gradient incremented from 3 to 25 G/cm were applied. Processing was carried out using the OpenVnmrJ 3.1A software with the option of correction for spatially non-uniform pulsed field gradients.

[3] = Solubility of ceftobiprole determined by HPLC; format: physicochemical
Protocol: The samples were stored in a freezer, taking into account the recommended storage conditions for ceftobiprole. The stability of the prepared samples was tested at defined intervals using the same methodology. To evaluate potential changes in solubility due to physical transformations such as phase transitions or recrystallization, an identical volume of water was added as in the initial solubility test. Subsequently, the reconstituted samples were analysed by HPLC to determine the precise solubility and to monitor any increase in the concentration of DPs content, thereby assessing both physical and chemical stability.
The LC-MS/MS experiments were performed using the same equipment and methodology as described in [14], with one modification: to acquire a full mass spectrum of SBE-β-CD, the range of detected m/z was broadened to 2500.

[4] = cited from earlier work
[5] = parameters: method as in PMID 38068968; conditions: theoretical calculations, depending on the software used; cited from earlier work

SMILES: O=C(O)CC(O)(CC(=O)O)C(=O)O [citric acid]
- pH of the solution intended for freeze-drying ([1]; 20-fold molar excess of citric acid in relation to ceftobiprole): 2.9
- pH of the solution intended for freeze-drying ([1]; 50-fold molar excess of citric acid in relation to ceftobiprole): 2.7
- pH of the solution intended for freeze-drying ([1]; 100-fold molar excess of citric acid in relation to ceftobiprole): 2.5

SMILES: O=C(O)/C=C\C(=O)O [maleic acid]
- diffusion coefficient D [2]: 7.11 × 10^−10 m^2/s

SMILES: Nc1nc(/C(=N/O)C(=O)N[C@@H]2C(=O)N3C(C(=O)O)=C(/C=C4\CCN([C@@H]5CCNC5)C4=O)CS[C@H]23)ns1 [ceftobiprole]
- solubility ([3]; 0.1 M aqueous formic acid (HCOOH), solubility of ceftobiprole before use of 0.1 M formic acid and SBE-β-CD): ~100 µg/mL (≈ 187 µM)
- fold higher solubility after freeze-drying in 0.1 M HCOOH ([3]; freeze-dried (2.1 mg/mL) vs unprocessed in 0.1 M HCOOH ([…])): 15 fold
- solubility ([3]; water, freeze-dried analogue without SBE-β-CD, reconstituted in water, read-out: Solubility of Ceftobiprole for Freeze-Dried Samples in a Preliminary Study Without SBE-β-CD): 2100 µg/mL (≈ 3930 µM)
- solubility ([3]; water, freeze-dried from water without acid, read-out: solubility after freeze-drying of pure aqueous solutions): 120 µg/mL (≈ 224 µM)
- solubility ([3]; water, without freeze-drying in acidic environment, read-out: water solubility of ceftobiprole): 50 µg/mL (≈ 93.5 µM)
- pH of the dissolved sample ([1]; freeze-dried in 0.1 M HCOOH without SBE-β-CD): approximately 5
- diffusion coefficient D [2]: ≈ 3.16 × 10^−10 m^2/s
- molar fraction MFCB of ceftobiprole molecules being complexed ([2]; cCB = 1.917 mM, cCD = 7.667 mM): ≈ 0.35
- molar fraction MFCB ([2]; calculated for cCB = 22.5 mM, cCD = 90 mM (1:25:4), K = 77 M^−1): 0.845
- molar fraction MFCB ([2]; calculated for molar ratio 1:25:2, cCD = 45 mM): 0.693
- equilibrium constant K of complex with SBE-β-CD ([2]; semi-quantitative, from DOSY): 77 M⁻¹
- ceftobiprole molecules in the complex with SBE-β-CD ([2]; solution near saturation, 1:25:4): 85%
- t90 ([4]; 0.01 M NaOH): ≈ 10 min
- t90 (time for 10% decrease in initial concentration) ([4]; 0.1 M HCl at room temperature): approximately 22 h
- t90 ([4]; 3% H2O2): ≈ 25 min
- t90 ([4]; UV irradiation at 366 nm): ≈ 1 h
- decrease of degradation rate constant in the presence of 10 mM SBE-β-CD ([4]; acidic degradation in 0.1 M HCl at 25 °C): 2.5 fold
- decrease of degradation rate constant in the presence of 10 mM SBE-β-CD ([4]; thermal degradation in water at 45 °C): 2.5 fold
- pKa of the carboxyl group of ceftobiprole [5]: 3.0 and 3.2

— publication PMC12249915, “Development of a Cyclodextrin-Based Drug Delivery System to Improve the Physicochemical Properties of Ceftobiprole as a Model Antibiotic” (International Journal of Molecular Sciences, 2025)
